The target in this test is T1, human β2 adrenergic receptor (Homo sapiens, UniProt P07550).
T1 construct: expressed in transfected cells; host or cells: CHO (Chinese Hamster Ovary) cells, CHOhβ2
Nature of the test: cAMP Flashplate assay in CHO cells recombinantly expressing the human β2 adrenergic receptor (agonist potency). It counts as cell-based. To be noted: CHOhβ2 cells, 1 hour incubation, 125I-cAMP Flashplate; data expressed as % Isoprenaline activity, four parameter sigmoid fit. The method, then:
According to another alternative, the agonist potency for the β2 receptor of the L-tartrate salt of the invention may also be determined by the measure of the concentration of compound according to the present invention required to produce half maximal effect (EC50) for the β2 receptor.
10 mM/100% DMSO (dimethylsulfoxide) stock of compound is diluted to required top dose in 4% DMSO. This top dose is used to construct a 10-point semi-log dilution curve, all in 4% DMSO. Isoprenaline (Sigma, I-5627) was used as a standard in every experiment and for control wells on each plate. Data was expressed as % Isoprenaline response. […]
25 μl/well each dose of compound was transferred into a cAMP-Flashplate® (NEN, SMP004B), with 1% DMSO as basal controls and 100 nM Isoprenaline as max controls. […] The amount of ^125I-cAMP bound to the Flashplate® was quantified using a Topcount NXT (Packard), normal counting efficiency for 1 minute. Dose-response data was expressed as % Isoprenaline activity and fitted using a four parameter sigmoid fit.

T1 sequence (P07550 whole entry): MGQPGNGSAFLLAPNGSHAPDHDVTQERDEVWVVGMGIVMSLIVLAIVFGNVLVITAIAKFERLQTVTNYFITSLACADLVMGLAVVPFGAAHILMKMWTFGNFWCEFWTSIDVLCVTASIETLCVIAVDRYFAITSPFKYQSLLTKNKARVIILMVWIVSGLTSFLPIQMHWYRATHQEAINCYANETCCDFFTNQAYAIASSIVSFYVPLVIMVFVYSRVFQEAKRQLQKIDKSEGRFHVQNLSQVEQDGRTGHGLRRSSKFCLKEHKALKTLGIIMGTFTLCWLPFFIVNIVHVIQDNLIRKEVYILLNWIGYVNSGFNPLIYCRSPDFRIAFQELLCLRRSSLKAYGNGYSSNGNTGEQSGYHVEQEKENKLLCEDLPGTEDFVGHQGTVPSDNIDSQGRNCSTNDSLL

A word on the EC50: it is the concentration needed to bring the measured effect to its halfway point. For the compound `C[C@H](Cc1cccc(CC(=O)NC23CC4CC(CC(C4)C2)C3)c1)NC[C@H](O)c1ccc(O)c(CO)c1` [example 1, N-1-Adamantyl-2-{3-[(2R)-2-({(2R)-2-hydroxy-2-[4-hydroxy-3-(hydroxymethyl)phenyl]ethyl}amino)propyl]phenyl}acetamide L-tartrate], the EC50 turned out to be 0.076 nM.

For the origin of these results see patent US20060106107A1, “L-tartrate salt of N-1-Adamantyl-2-{3-[(2R)-2-({(2R)-2-hydroxy-2-[4-hydroxy-3-(hydroxymethyl)phenyl]ethyl}amino)propyl] phenyl}acetamide” (priority 2004, published 2006).
